PubChem BioAssay (NCI)
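1) Cells in 96-well plates. 2) Compound, 48 h, 5 concentrations. 3) Linear interpolation between surrounding doses. 4) Unreached endpoint = highest concentration. TGI is the concentration that stops growth completely.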

Tests used:
Assay in all cases: inhibition of tumour cell growth, NCI panel, 48 h
SF-268 CNS = system: SF-268 CNS
HT29 colon = system: HT29 colon
MDA-MB-435 = system: MDA-MB-435
A498 renal = system: A498 renal
SNB-19 CNS = system: SNB-19 CNS
MALME-3M melanoma = system: MALME-3M melanoma
PC-3 prostate = system: PC-3 prostate
SW-620 colon = system: SW-620 colon
SK-OV-3 ovarian = system: SK-OV-3 ovarian
SNB-75 CNS = system: SNB-75 CNS
MDA-N = system: MDA-N
NCI-H226 lung = system: NCI-H226 lung

O=C(NCCN1CCCCC1)c1ccc(Br)cc1
TGI (SF-268 CNS): > 100 µM | TGI (HT29 colon): > 100 µM | TGI (MDA-MB-435): > 100 µM | TGI (A498 renal): > 100 µM | TGI (SNB-19 CNS): > 100 µM | TGI (MALME-3M melanoma): > 100 µM | TGI (PC-3 prostate): > 100 µM | TGI (SW-620 colon): > 100 µM | TGI (SK-OV-3 ovarian): > 100 µM | TGI (SNB-75 CNS): > 100 µM | TGI (MDA-N): > 100 µM

CC(C)(C)N=CN1C=Cc2nc3ccccc3cc2C1
TGI (SF-268 CNS): > 100 µM | TGI (HT29 colon): > 100 µM | TGI (A498 renal): > 100 µM | TGI (SNB-19 CNS): > 100 µM | TGI (MALME-3M melanoma): > 100 µM | TGI (SW-620 colon): 49.2 µM | TGI (SK-OV-3 ovarian): > 100 µM | TGI (SNB-75 CNS): > 100 µM

Nc1nc(NNc2cccc(F)c2)cc(=O)[nH]1
TGI (HT29 colon): 54.6 µM | TGI (MDA-MB-435): 64.9 µM | TGI (A498 renal): > 100 µM | TGI (NCI-H226 lung): > 100 µM | TGI (SNB-19 CNS): > 100 µM | TGI (MALME-3M melanoma): > 100 µM | TGI (PC-3 prostate): 59.7 µM | TGI (SW-620 colon): > 100 µM

COC(=O)C(=O)C(C(=O)OC)C(=O)C(=O)Nc1c(C)cccc1C (stereo not given)
TGI (SF-268 CNS): > 100 µM | TGI (HT29 colon): > 100 µM | TGI (A498 renal): > 100 µM | TGI (NCI-H226 lung): > 100 µM | TGI (SNB-19 CNS): > 100 µM | TGI (MALME-3M melanoma): > 100 µM | TGI (SW-620 colon): > 100 µM | TGI (SK-OV-3 ovarian): > 100 µM | TGI (SNB-75 CNS): > 100 µM

CC(C)c1cccc(C(C)C)c1NC(=O)C(=O)Cc1nc2ccc([N+](=O)[O-])cc2[nH]c1=O
TGI (HT29 colon): > 100 µM | TGI (A498 renal): > 100 µM | TGI (NCI-H226 lung): > 100 µM | TGI (SNB-19 CNS): > 100 µM | TGI (MALME-3M melanoma): > 100 µM | TGI (SW-620 colon): > 100 µM | TGI (SK-OV-3 ovarian): > 100 µM | TGI (SNB-75 CNS): > 100 µM

CC(C)(C)c1cc(CCC(=O)Nc2ccc(Cl)cc2)[nH]c(=S)n1
TGI (SF-268 CNS): > 100 µM | TGI (HT29 colon): > 100 µM | TGI (NCI-H226 lung): > 100 µM | TGI (SNB-19 CNS): > 100 µM | TGI (MALME-3M melanoma): > 100 µM | TGI (SW-620 colon): > 100 µM | TGI (SK-OV-3 ovarian): > 100 µM | TGI (SNB-75 CNS): > 100 µM

Cc1ccc(C(=O)CC2(O)C(=O)Nc3c(C)cc(Cl)cc32)cc1 (stereo not given)
TGI (SF-268 CNS): > 100 µM | TGI (HT29 colon): > 100 µM | TGI (NCI-H226 lung): > 100 µM | TGI (SNB-19 CNS): > 100 µM | TGI (MALME-3M melanoma): > 100 µM | TGI (SW-620 colon): > 100 µM | TGI (SK-OV-3 ovarian): > 100 µM | TGI (SNB-75 CNS): > 100 µM

O=C(Cc1ccccc1)NN1C(=O)C(Cl)C1c1ccccc1Cl (stereo not given)
TGI (SF-268 CNS): > 100 µM | TGI (HT29 colon): > 100 µM | TGI (A498 renal): > 100 µM | TGI (NCI-H226 lung): > 100 µM | TGI (SNB-19 CNS): > 100 µM | TGI (MALME-3M melanoma): > 100 µM | TGI (SW-620 colon): > 100 µM | TGI (SK-OV-3 ovarian): > 100 µM | TGI (SNB-75 CNS): > 100 µM

CCOc1ccccc1N=Nc1ccc2oc(=O)c(C(C)=O)cc2c1
TGI (SF-268 CNS): > 100 µM | TGI (HT29 colon): > 100 µM | TGI (A498 renal): > 100 µM | TGI (SNB-19 CNS): > 100 µM | TGI (MALME-3M melanoma): > 100 µM | TGI (SW-620 colon): > 100 µM | TGI (SK-OV-3 ovarian): > 100 µM | TGI (SNB-75 CNS): 43.2 µM

CCCCOCCOCCOC1=CC(=O)c2c(O)ccc(O)c2C1=O
TGI (SF-268 CNS): > 10 µM | TGI (MDA-MB-435): 0.356 µM | TGI (NCI-H226 lung): 3.59 µM | TGI (SNB-19 CNS): 3.19 µM | TGI (MALME-3M melanoma): 1.49 µM | TGI (PC-3 prostate): 7.53 µM | TGI (SW-620 colon): 3.06 µM | TGI (SK-OV-3 ovarian): > 10 µM | TGI (MDA-N): 0.329 µM

COc1ccccc1NC(=O)C1=C(C)NC(C)=C(C(=O)Nc2ccccc2OC)C1c1ccccc1[N+](=O)[O-]
TGI (SF-268 CNS): 50.7 µM | TGI (HT29 colon): 37 µM | TGI (NCI-H226 lung): 35.2 µM | TGI (MALME-3M melanoma): 36.2 µM | TGI (SK-OV-3 ovarian): 68 µM | TGI (SNB-75 CNS): > 100 µM

COC(=O)C1CC2C=CC=CC(=O)C2(C)C1 (stereo not given)
TGI (SF-268 CNS): > 100 µM | TGI (HT29 colon): > 100 µM | TGI (A498 renal): > 100 µM | TGI (NCI-H226 lung): > 100 µM | TGI (SNB-19 CNS): > 100 µM | TGI (MALME-3M melanoma): > 100 µM | TGI (SW-620 colon): 90.1 µM | TGI (SK-OV-3 ovarian): > 100 µM
